# Reference: US20100093861A1, “TREATMENT OF INSULIN RESISTANCE OR DISEASES ASSOCIATED WITH INSULIN RESISTANCE” (Stevia ApS, priority 2006, published 2010)
# Key:
# 11-beta-HSD-1 = assay: Affymetrix gene chip analysis of KKAy islets: 11-beta-HSD-1; format: in vivo, mice; details: ISV vs. KKAy control islets, 9 weeks
# Procedure: (§1) cRNA preparation and in vitro transcription: In total 6 Affymetrix arrays MOE430 2.0 probe array cartridge were used i.e. for analysis of 3 replicas for the KKAy control group and the ISV group, respectively. Each of the 6 samples consisted of pooled RNA from 3-4 KKAy mice. Preparation of target for hybridization was prepared from 340 ng of total RNA using MessageAmp™ II aRNA Amplification Kits (Ambion), according to the manufacturers instructions. Arrays were hybridised and scanned as described elsewhere (Kruhoffer et al., 2005).
# C/EBP-alpha = assay: Gene expression in islets from diabetic KKAy-mice, real time RT-PCR (Example 2): C/EBP-alpha; format: in vivo; details: islets of KKAy-mice after nine weeks treatment, normalized to 18S rRNA
# Procedure: (§2) A the end of the nine week period of the in vivo study in example 1 RNA was purified from Islets, muscle, liver and fat from the three experimental groups, using standard techniques as described in Kiergen, RNA easy.
# (§3) Gene expression of PDX-1, IRS1, Beta2, 11beta-HSD-1, Akt1, C/EBP-alpha, CPT1, GLUT2, IGF1, IR and Ins1 was measured with Real time RT-PCR using Taq Man Assays normalized to 18S rRNA, using the standard protocol (ABI, USA). All reagents were obtained from (ABI, USA). All probes are standard probes obtainable from ABI, USA, under the specific probe code number, given in respect of each gene.
# IGF-1 = assay: Gene expression in islets from diabetic KKAy-mice, real time RT-PCR (Example 2): IGF-1; format: in vivo; details: islets of KKAy-mice after nine weeks treatment, normalized to 18S rRNA
# Procedure: as §2, §3
# [1] = tested on: isolated NMRI mice islets; assay: Glucose stimulated insulin secretion (GSIS) from isolated NMRI mice islets; format: cell-based
# Procedure: For in vitro studies with steviol and ISV, we included adult female NMRI mice (Taconic, Ry Denmark), all weighing 22-25 g. We used 12 hours light/dark cycle. The Danish Council for Animal experiments has approved the study.
# Islets were isolated by the collagenase digestion technique. In brief, the animals were anesthetized with pentobarbital (50 mg/kg intraperitoneally) and midline laparotomy was performed. The pancreas was retrogradely filled with 3 mL ice-cold Hanks balanced salt solution (([HBSS] Sigma Chemical, St Louis, Mo.) supplemented with 0.3 mg/ml collagenase Boehringer Mannheim GmbH, Germany). The pancreas was subsequently removed and incubated for 19 minutes at 37° C. After rinsing in HBSS, the islets were handpicked under a stereomicroscope and immediately transferred to a tubes containing 1 ml Trizol (Gibco/Invitrogene, Calsbad, Calif., USA). The islets isolated from the NMRI mice were incubated overnight at 37° C. and 95% normal atmosphere/5% CO2 in 10 ml RPMI 1640 containing 11.1 mmol/L glucose supplemented with penicillin G and 100 μg/mL streptomycin (all Gibco/Invitrogene, Calsbad, Calif., USA).
# The NMRI female mice islets were rinsed twice with a modified Krebs-Ringer buffer (KRB) supplemented with 3.3 mmol/L glucose and 0.1% human serum albumin (Sigma). The KRB contained 125 mmol/L NaCl, 5.9 mmol/L KCl, 1.2 MgCl, 1.28 CaCl2 and 25 mmol/L HEPES (Ph 7.4: all Sigma). Single islets were incubated in 100 μL KRB containing glucose (3.3 and 16.7 mmol/L) and steviol/ISV according to the protocols (Jeppesen et al., 2000). After incubation (60 min), 50 μL of the medium was frozen for RIA analysis of insulin.
# KKAy-mice = assay: In vivo study of plasma insulin, glucose, triglycerides and body weight in KKAy-mice after isosteviol (Example 3)
# Procedure: Twenty six male KKAy-mice (Clea Japan, Tokyo, Japan), all 5 week-old, weighing 22-25 g were randomized to 2 groups and treated for 9 weeks with; • A: standard chow diet (control); • B: standard chow diet+20 mg/kg BW of Isosteviol (hereinafter ISV).
# The composition of the standard chow diet dry matter was: Protein 24%, carbohydrate 71%, and Lipids 5%. ISV (ent-16-ketobeyeran-19-oic acid; Wako Pure Chemical Industries, Osaka, Japan) was incorporated in the mice food pellet and administered orally.
# Hormones and lipids were measured from blood sample at start and end of the treatment period. Blood sample was taken from the tail of the animals on chilled tubes containing heparin/aprotinin and centrifuged (4000 g, 60 seconds, […]), and plasma was frozen for subsequent analysis of insulin, glucose and triglycerides. Fasting blood glucose, as well as BW, was measured before and after intervention.
# Plasma blood glucose was determined using the glucose oxidase method (GOD-PAP,
# Boehringer Mannheim, GmbH Germany). Insulin was determined by radioimmunoassay with a guinea pig antiporcine insulin antibody (PNILGP4, Novo Nordisk, Bagsvaerd, Denmark), and mono-[125I]-(Tyr A14) labelled human insulin (Novo Nordisk) as tracer and rat insulin (Novo Nordisk) as standard. We separated free and bound radioactivity using ethanol (Heding, 1972). Interassay and intra-assay variation was below 10%. […] Triglycerides was determined using colorimetric kits (Roche Diagnostics, Boehringer Mannheim, GmbH Germany). The fasting glucose-insulin index was calculated as the product of plasma insulin and plasma glucose ([plasma insulin ng/ml]×[plasma glucose mmol/l]/1000) and compared between groups as relative units (Chang et al., 2005).
# IR = assay: Affymetrix gene chip analysis of KKAy islets: IR; format: in vivo, mice; details: ISV vs. KKAy control islets, 9 weeks
# Procedure: as §1
# [2] = ISV group of KKAy mice, age 5 weeks, before treatment
# [3] = KKAy mice, 20 mg/kg BW in diet, after 9-week treatment
smiles,measurement,setting,value
"C[C@@]12CC[C@@H]3[C@@](CC[C@H]4[C@@]3(C)CCC[C@@]4(C)C(=O)O)(CC1=O)C2 (single isomer, unassigned; ent-16) [ISV, ent-16-ketobeyeran-19-oic acid]",array: change of 11-beta-HSD-1 expression,11-beta-HSD-1,down regulation
same,decreased expression of C/EBPα compared to standard diet,C/EBP-alpha,49%
same,decreased expression of IGF1 compared to standard diet,IGF-1,46%
same,effect on insulin secretion at low glucose,"[1]; 3.3 mmol/L glucose, 60 min incubation",did not potentiate the insulin secretion
same,concentration giving apparent maximal effect on glucose stimulated insulin secretion,"[1]; 16.7 mmol/L glucose, 60 min incubation",approx. 10^−8 mol/l
same,"potency on GSIS, isosteviol compared with steviol, at higher concentration","[1]; 10^−8 mol/l-10^−6 mol/l, 16.7 mmol/l glucose, 60 minutes",not found any significant difference
same,"potency on GSIS, isosteviol compared with steviol, at low concentration","[1]; 10^−10 mol/l, 16.7 mmol/l glucose, 60 minutes",significantly more potent than steviol
same,effect on insulin secretion stimulated by 16.7 mmol/L glucose,"[1]; ISV 10^−12 mol/l-10^−8 mol/l, 60 min incubation",potentiated insulin secretion
same,reduction of plasma insulin increase compared to the KKAy control,KKAy-mice; 9 weeks treatment,62%
same,reduction of the plasma TG increase in the KKAy,KKAy-mice; 9 weeks treatment,74%
same,glucose-insulin index at start of study,"KKAy-mice; ISV group of KKAy mice before treatment, product of plasma insulin and plasma glucose",8.6 unit
same,plasma glucose at start of study,KKAy-mice; [2],8.9 mmol/L
same,plasma insulin at start of study,KKAy-mice; [2],1.0 ng/mL
same,plasma TG level at age 5 week,"KKAy-mice; ISV group of KKAy mice, before treatment",1.25 mmol/L
same,reduction in plasma glucose compared to the increase for the KKAy,"KKAy-mice; KKAy at 5 weeks as baseline, 9 weeks treatment",59%
same,plasma TG level at age 14 weeks,KKAy-mice; KKAy mice after 9 weeks treatment,2.02 mmol/L
same,glucose-insulin index at the end of the study,"KKAy-mice; KKAy mice after 9 weeks treatment, product of plasma insulin and plasma glucose",1596 unit
same,plasma glucose at the end of the study,KKAy-mice; [3],16.2 mmol/L
same,plasma insulin at the end of the study,KKAy-mice; [3],80.9 ng/mL
same,fold increase of plasma glucose during study period,"KKAy-mice; KKAy mice, 20 mg/kg BW, 9 weeks, KKAy control 2.8 fold",1.8 fold
same,fold increase of plasma insulin during study period,"KKAy-mice; KKAy mice, 20 mg/kg BW, 9 weeks, KKAy control 266 fold",81 fold
same,increase of TG level at age 14 weeks compared to age 5 week,"KKAy-mice; KKAy mice, 9 weeks treatment, KKAy control 192%",62%
same,reduction in weight at the end of the 9 week treatment period,"KKAy-mice; KKAy mice, vs. KKAy control",13%
same,body weight after 5 weeks,"KKAy-mice; KKAy mice, KKAy control 38.6 g",29.9 g
same,body weight after 9 weeks treatment,"KKAy-mice; KKAy mice, KKAy control 41.6 g",36.3 g
same,array: change of IR expression,IR,no changes
